# Assay results: US12692274B2, “Tetrahydroisoquinoline derivatives for the treatment of red blood disorders and inflammatory diseases” (Sanofi, priority 2020, dated 2026)
# Where “and” joins values, the source holds several entries; their conditions need not be identical. Equal entries are not always repeated.
# Tests used:
# [1] = test system: NQO1 activation in BEAS-2B cells; assay: BEAS-2B cellular MTT assay of NQO1 activation, 0% HSA; format: cell-based
# Summary of the method: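 BEAS-2B cells grown in BEBM with BEGM SingleQuots (no GA-1000), kept below 70% confluence, seeded on collagen plates at a density giving 95-100% confluence after 48 h. Plates seeded in medium without HSA (0% HSA condition).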
# [2] = test system: NQO1 activation in BEAS-2B cells; assay: BEAS-2B cellular MTT assay of NQO1 activation, 0.3% HSA; format: cell-based
# Summary of the method: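 BEAS-2B cells (<70% confluent in culture, BEBM/SingleQuots without GA-1000) seeded in collagen plates with 0.3% or 0% HSA, reaching 95-100% confluency after 48 h at 37 °C, 5% CO2; MTT read-out.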
# [3] = target: HIS-Keap1 full length / Biotin-Nrf2 (16-mer) (Homo sapiens, UniProt Q14145); assay: biochemical
# [4] = Homo sapiens, Serum Free W, read-out: BEAS EC50 (nM) Serum Free W
# [5] = Serum Free W, read-out: BEAS EC50 (nM) Serum Free W
# [6] = BEAS+ W, read-out: BEAS+ W EC50
# [7] = Homo sapiens, BEAS+ W, read-out: BEAS+ W EC50
# [8] = Homo sapiens, serum free, read-out: BEAS EC50 (nM) serum free
# [9] = serum free, read-out: BEAS EC50 (nM) serum free
# [10] = Homo sapiens, BEAS+, read-out: BEAS+ EC50
# Chain of HIS-Keap1 full length / Biotin-Nrf2 (16-mer) (Q14145 whole entry): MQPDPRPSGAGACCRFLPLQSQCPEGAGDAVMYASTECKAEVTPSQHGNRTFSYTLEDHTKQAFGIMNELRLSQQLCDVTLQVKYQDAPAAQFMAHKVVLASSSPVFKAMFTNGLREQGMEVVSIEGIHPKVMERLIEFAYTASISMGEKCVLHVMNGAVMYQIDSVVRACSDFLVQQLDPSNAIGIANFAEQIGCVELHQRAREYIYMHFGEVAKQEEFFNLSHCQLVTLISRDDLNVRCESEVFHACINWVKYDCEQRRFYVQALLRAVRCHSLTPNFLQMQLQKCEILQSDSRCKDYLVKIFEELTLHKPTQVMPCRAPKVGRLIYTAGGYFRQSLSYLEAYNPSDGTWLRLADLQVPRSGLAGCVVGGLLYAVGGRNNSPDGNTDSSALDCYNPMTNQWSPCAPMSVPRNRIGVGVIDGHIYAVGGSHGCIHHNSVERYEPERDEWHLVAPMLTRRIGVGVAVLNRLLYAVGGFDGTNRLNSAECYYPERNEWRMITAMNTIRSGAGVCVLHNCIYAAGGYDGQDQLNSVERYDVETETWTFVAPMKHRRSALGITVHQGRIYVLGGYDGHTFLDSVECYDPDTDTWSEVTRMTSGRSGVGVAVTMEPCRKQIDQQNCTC
SMILES,"EC50 [1, 4] [nM]","EC50 [1, 5] [nM]","EC50 [2, 6]","EC50 [2, 7] [nM]",IC50 [3],"EC50 [1, 8] [nM]","EC50 [1, 9] [nM]","EC50 ([2]; BEAS+, read-out: BEAS+ EC50) [nM]","EC50 [2, 10] [nM]"
COc1cc2ccc1CCCCCCn1nnc3c(C)c(cnc31)[C@@H](CC(=O)O)c1ccc3c(c1)CN(CC3)C2=O [Compound 96],25.5,29.4,49.6 nM,42.8,0.8 nM,–,–,–,–
Cc1cc2ccc1C(=O)N1CCc3ccc(cc3C1)[C@H](CC(=O)O)c1cnc(cc1C)OCCCCC2 [Compound 99],23.9,25.6,79 nM,108,8.8 nM and 8.4 nM,–,–,–,–
Cc1cc2ccc1C(=O)N1CCc3ccc(cc3C1)[C@@H](CC(=O)O)c1cnc(cc1C)OCCCCC2 [Compound 100],1.7,1.6,9.1 nM,8,1.1 nM and 1 nM,–,–,–,–
COc1cc2ccc1CCCCCCn1nnc3c(C)c(ccc31)[C@@H](CC(=O)O)c1ccc3c(c1)CN(CC3)C2=O [Compound 101],4.7,5.1,31 nM,34.9,2.6 nM and 2.8 nM,–,–,–,–
COc1cc2ccc1CCCCCCn1nnc3c(C)c(ccc31)[C@H](CC(=O)O)c1ccc3c(c1)CN(CC3)C2=O [Compound 102],25.1,24.6,104 nM,117,4.5 nM and 4.2 nM,–,–,–,–
COc1cc2ccc1CCCCCCn1nnc3c(C)c(cnc31)C(CC(=O)O)c1ccc3c(c1)CN(CC3)C2=O (stereo not drawn) [Compound 104],30,36.5,130 nM,147,0.2 nM and 0.3 nM and 1.7 nM and 1.6 nM,9.3,7.4,19.2,16.4
Cc1cc2cc3c1CCN(C3)C(=O)c1ccc(cc1)CCCCCn1nnc3c(C)c(cnc31)C2CC(=O)O (stereo not drawn) [Compound 105],3.9,4.2,9.1 nM,11.6,0.8 nM,–,–,–,–
Cc1cc2cc3c1CCN(C3)C(=O)c1ccc(cc1)CCCCCCn1nnc3c(C)c(cnc31)C2CC(=O)O (stereo not drawn) [Compound 106],4.5,5.6,44.8 nM,35.5,0.9 nM and 0.7 nM,–,–,–,–
Cc1c2ccc3c1nnn3CCCCCc1cnc3c(c1)cc(n3C)C(=O)N1CCc3ccc(cc3C1)[C@H]2CC(=O)O [Compound 111],19,19.5,101 nM,122,0.4 nM and 0.2 nM,–,–,–,–
Cc1c2ccc3c1nnn3CCCCCc1cnc3c(c1)cc(n3C)C(=O)N1CCc3ccc(cc3C1)[C@@H]2CC(=O)O [Compound 112],2.9,2.7,25.5 nM,23,0.3 nM,–,–,–,–
Cc1c2ccc3c1nnn3CCCCCc1ccc3c(c1)cc(n3C)C(=O)N1CCc3ccc(cc3C1)[C@H]2[C@H](C)C(=O)O [Compound 114],0.1,0.2,8.2 nM,9.8,0.4 nM,–,–,–,–
Cc1c2ccc3c1nnn3CCCCCOc1ccc(cc1)C(=O)N1CCc3ccc(cc3C1)[C@@H]2[C@@H](C)C(=O)O [Compound 118],2.5,4.2,4.4 nM and 3.6 nM and 6.5 nM,3.8,0.4 nM,–,–,–,–
Cc1cc2ncc1[C@H](CC(=O)O)c1ccc3c(c1)CN(CC3)C(=O)c1c(F)cc(cc1F)CCCCCO2 [Compound 120],1.4,–,7.6 nM and 4.6 nM and 6.3 nM,7.9,0.3 nM and 0.4 nM,–,–,–,–
Cn1cc2c3ccc(cc31)CCCCOc1ccc(cn1)C(CC(=O)O)c1ccc3c(c1)CN(CC3)C2=O (stereo not drawn) [Compound 121],> 1000,–,–,> 10000,> 990 nM,–,–,–,–
Cc1cc2ncc1[C@@H](CC(=O)O)c1ccc3c(c1)CN(CC3)C(=O)c1c(F)cc(cc1F)CCCCCO2 [Compound 122],17.6,30.2,54.2 nM,47,52.8 nM and 42.8 nM,–,–,–,–
Cc1c2cnc3c1nnn3CCCCCc1ccc(cc1)C(=O)N1CCc3ccc(cc3C1)[C@@H]2CC(=O)O [Compound 124],7.6,7.3,12.5 nM,9,0.6 nM,–,–,–,–
Cc1cc2ncc1C(CC(=O)O)c1ccc3c(c1)CN(CC3)C(=O)c1cn(C)c3ccc(cc13)CCCCCO2 (stereo not drawn) [Compound 126],> 1000,–,–,> 10000,> 990 nM,–,–,–,–
Cc1c2cnc3c1nnn3CCCCCCOc1cc(F)c(c(F)c1)C(=O)N1CCc3ccc(cc3C1)C2CC(=O)O (stereo not drawn) [Compound 128],9.8,7.1,47.2 nM,31,1 nM and 1.4 nM,14.2,12.2,20.3,17.7
Cc1c2ccc3c1nnn3CCCCCc1ccc(cc1)C(=O)N1CCc3ccc(cc3C1)[C@H]2[C@H](C)C(=O)O [Compound 133],16,31,38.9 nM,39.4,1.4 nM and 1.3 nM,–,–,–,–
Cc1c2ccc3c1nnn3CCCCCCc1ccc(cc1)C(=O)N1CCc3ccc(cc3C1)[C@H]2[C@H](C)C(=O)O [Compound 134],56.5,90.8,203 nM,143,3.8 nM (2×) and 10.4 nM and 9.8 nM,22.6,20.2,72.8,80.5
Cc1c2cnc3c1nnn3CCCCCCc1ccc3c(c1)cc(n3C)C(=O)N1CCc3ccc(cc3C1)C2CC(=O)O (stereo not drawn) [Compound 135],1.9,1.8,11.8 nM,18.9,0.9 nM and 1.2 nM,–,–,–,–
Cc1c2cnc3c1nnn3CCCCCc1cc(F)c(c(F)c1)C(=O)N1CCc3ccc(cc3C1)[C@@H]2CC(=O)O [Compound 136],–,–,–,–,1.4 nM and 1.3 nM,10,7.3,24.3,15
Cc1c2cnc3c1nnn3CCCCCc1ccc(c(F)c1)C(=O)N1CCc3ccc(cc3C1)C2CC(=O)O (stereo not drawn) [Compound 137],–,–,–,–,0.3 nM,1.9,1.8,2.8,1.9
Cc1c2cnc3c1nnn3CCCCCc1cc(F)c(c(F)c1)C(=O)N1CCc3ccc(cc3C1)[C@H]2CC(=O)O [Compound 139],–,–,–,–,0.1 nM,0.2,–,0.3,0.2
Cc1c2cnc3c1nnn3CCCCCCc1ccc(cc1)C(=O)N1CCc3ccc(cc3C1)[C@H]2CC(=O)O [Compound 140],–,–,–,–,0.3 nM and 0.5 nM,11.6,8.8,27.3,30.4
Cc1c2ccc3c1nnn3CCCCCCc1ccc(c(F)c1)C(=O)N1CCc3ccc(cc3C1)[C@H]2[C@@H](C)C(=O)O [Compound 141],> 1000,–,7040 nM,7200,> 990 nM,–,–,–,–
Cc1c2cnc3c1nnn3CCCCCc1ccc3c(c1)cc(n3C)C(=O)N1CCc3ccc(cc3C1)C2CC(=O)O (stereo not drawn) [Compound 143],2.2,2.6,10.6 nM,10.3,0.7 nM,–,–,–,–
O=C(O)CC1c2ccc3c(c2)CN(CC3)C(=O)c2ccc(cc2F)CCCCCn2nnc3c(Cl)c1ccc32 (stereo not drawn) [Compound 145],–,–,–,–,0.1 nM,0.6,0.5,0.7,0.4
Cc1cc2ccc1C(=O)N1CCc3ccc(cc3C1)C(CC(=O)O)c1ccc(nc1C)OCCCCC2 (stereo not drawn) [Compound 149],–,–,–,–,9.4 nM and 7.4 nM,74.3,67.8,89.3,103
